# Experimental data: US10959970B2, “Methods of treating hair related conditions” (Nogra Pharma Limited, priority 2009, dated 2021)
# Assays:
# sebocytes [1] = assay: MTT test on human sebocytes; type: cell-based; settings: 0.1-0.5-1-2 mM, 24 and 48 h, FIG. 12
# Description: To assess the possible toxic or cytostatic effect of the substances under study, a spectrophotometric test (MTT) was carried out. The sebocytes were plated in wells of a 24-well plate in suitable medium with addition of antibiotics, calcium and EGF. At roughly 70% confluence, the cells were exposed to the presence of compound A, in various concentrations (0.1-0.5-1-2 mM), for 24 and 48 h. At the end of the treatment, the MTT test was performed. […] (FIG. 12)
# [2] = system: human primary keratinocytes; assay: MTT test on human primary keratinocytes; type: cell-based; settings: 0.1-1-2 mM, 24 and 48 h, FIG. 7
# Description: To assess the possible toxic or cytostatic effect of the substances under study, a spectrophotometric test (MTT) was carried out. The human primary keratinocytes, isolated from skin biopsies, were plated in wells of a 24-well plate in suitable medium with addition of antibiotics, calcium, and specific growth factors. At around 70% confluence, the cells were exposed to the presence of Compound A, at various concentrations (0.1-1-2 mM), for 24 and 48 h in suitable medium with addition of antibiotics, calcium, but no growth factors. This culture condition was done for all the subsequent experiments. At the end of the treatment, the MTT test was done.
# TNF-alpha mRNA = assay: Inhibition of TNF-alpha mRNA induction by H2O2 in keratinocytes (Real time RT-PCR); type: cell-based, human; settings: H2O2 300 μM, 6 h, FIG. 8
# Description: Analysis of the inhibition of compound A of the mRNA induction of the proinflammatory cytokine TNF-alpha by H2O2 was carried out by Real time RT-PCR. The keratinocytes were plated in dishes of 6 cm/Ø. At 80% confluence, the cells were treated with H2O2 (300 μM) in presence of Compound A at the three concentrations (0.01-0.1-0.5 mM) for 6 h. At the end of the treatment, the cells were lysed in a lysis buffer and subjected to isolation and subsequent retrotranscription of the RNA. […] (FIG. 8)
# K19 = K19 cells in treated hair follicles and skin; type: cell-based, human; settings: for K19 cells: lower hair follicle, FIG. 6
# Description: (§1) A Philpott model test system of microdissected organ-cultured hair follicles is used. Hair follicles and skin punches were divided into 4 groups (3 HFs/well) incubated with the test substance Compound ‘A in different concentrations for 6 days. On day 0, microdissection measurements of hair length are conducted. On day 1, the medium is changed and addition of compound A (with measurement of hair length). On day 3, the medium is changed and compound a is added (with measurement of hair length). On day 6, hair length is measured and embedding occurs.
# [3] = system: human hair follicle pigmentation; assay: Fontana-Masson histomorphometry/melanin staining on hair follicle cryosections; type: cell-based; settings: FIG. 2
# Description: as §1
# [4] = system: human hair matrix keratinocytes; assay: Ki-67/Tunel fluorescent staining of hair follicles; type: cell-based; settings: high doses of compound A; FIG. 4
# Description: as §1
# Ki-67/Tunel staining was also conduct on the hair follicles using fluorescent staining.
# [5] = system: microdissected organ-cultured hair follicles; assay: Hair shaft elongation in Philpott model of microdissected organ-cultured hair follicles; type: cell-based, human; settings: 6 days, lower dose of compound A, FIG. 1
# Description: as §1
# IL-6 = assay: Inhibition of IL-6 protein induction by LPS in keratinocytes (ELISA); type: cell-based, human; settings: LPS 10 μg/ml, 0.01-0.1-0.5 mM, 24 h, supernatant ELISA, FIG. 11
# Description: Analysis of the inhibition by Compound A of the protein induction of IL-6 by LPS (lipopolysaccharide) was done with the ELISA kit. The keratinocytes were plated in wells of a 24-well plate. At 80% confluence, the cells were treated with LPS (10 μg/ml) in presence of compound A at the three concentrations (0.01-0.1-0.5 mM) for 24 h. At the end of the treatment, the supernatant was decanted, centrifuged so as to remove any cell detritus, and kept at −80° C. until the time of the analysis. The quantity of IL-6 present in the supernatant was normalized by the protein concentration of the sample itself.
# K15 = K15 expression in treated hair follicles and skin; type: cell-based, human; settings: FIG. 5
# Description: as §1
# IL-6 mRNA = assay: Inhibition of IL-6 mRNA induction by IFN-γ in keratinocytes (Real time RT-PCR); type: cell-based, human; settings: IFN-γ 30 ng/ml, 0.01-0.1-0.5 mM, 6 h, FIG. 9
# Description: Analysis of the inhibition by compound A of the mRNA induction of the proinflammatory cytokine IL-6 by IFN-γ was done through Real time RT-PCR. The keratinocytes were plated in dishes of 6 cm/Ø.
# At 80% confluence, the cells were treated with IFN-γ (30 ng/ml) in presence of compound A at the three concentrations (0.01-0.1-0.5 mM) for 6 h.
# sebocytes [6] = assay: Nile Red assay of sebogenesis induced by linoleic acid and testosterone in sebocytes; type: cell-based, human; settings: for sebogenesis (intracellular lipids, Nile Red) induced by LA and LA+TST: TST (20 nM), 24 h
# Description: Analysis of the inhibition by (compound A) of sebogenesis induced by treatment with linoleic acid (LA) and with testosterone (TST) was evaluated by spectrofluorimetry, using Nile Red as selective marker of intracellular lipids (Nile Red Assay). The sebocytes were plated in wells of a 24-well plate. Next day, they were deprived of serum (2%) and after 24 h they were stimulated, for another 24 h, with LA (10^-4M), TST (20 nM) in presence or in absence of A (1 mM). At the end of the treatment, the sebocytes were stained with Nile Red. The quantitative analysis was done by spectrofluorimetry, which made it possible to distinguish between neutral lipids and polar lipids based on the different wavelength of excitation and emission. […] (FIG. 13).
# Analysis of the inhibition by compound A of sebogenesis induced by treatment with linoleic acid (LA) and with testosterone (TST) was evaluated by spectrofluorimetry, using Nile Red as selective marker of intracellular lipids (Nile Red Assay). The sebocytes were plated in wells of a 24-well plate. Next day, they were deprived of serum (2%) and after 24 h they were stimulated, for another 24 h, with LA (10^-4M), TST (20 nM) in presence or in absence of compound A (1 mM). At the end of the treatment, the sebocytes were stained with Nile Red. The quantitative analysis was done by spectrofluorimetry, which made it possible to distinguish between neutral lipids and polar lipids based on the different wavelength of excitation and emission.
# sebocytes [7] = assay: GC-MS assay of fatty acids and squalene in lipid extract of sebocytes stimulated with LA and TST; type: cell-based, human; settings: sebocyte lipid extract, A 1 mM
# Description: In order to evaluate in greater detail the inhibition by Compound A of sebogenesis induced by LA and TST, assays were performed on the lipid extract of the sebocytes using gas chromatography coupled with mass spectrometry (GC-MS). The sebocytes were treated by the scheme described for the Nile Red assay. At the end of the treatment, the cells were removed and then the lipid extraction was done by using organic solvents. One part of the extract was used to analyze the fatty acid composition, while the other part was used for the determination of the quantity of squalene, a lipid characteristic of sebum. […] (FIG. 14B)
compound,measurement,setting,value
"CO[C@H](Cc1ccc(NC(C)=O)cc1)C(=O)O [Compound A, N-acetyl-(R)-(−)-3-(4-aminophenyl)-2-methoxypropionic acid]",cell vitality (MTT),sebocytes [1],no effects on cell vitality
same,cellular vitality (MTT),[2],did not show any effect on cellular vitality
same,expression of the mRNA of TNF-α induced by H2O2,"TNF-alpha mRNA; higher dose (0.5 mM), effect similar to troglitazone (Tg)",complete inhibition
same,expression of the mRNA of TNF-α induced by H2O2,TNF-alpha mRNA; two higher doses (0.1 mM; 0.5 mM),able to inhibit
same,K19 cells,K19; 10× higher concentration,down regulation
same,K19 cells,K19; lower concentration,significant upregulation
same,K19 expression,K19; skin,no measurable expression
same,human hair follicle pigmentation (melanin staining),[3],stimulation of human hair follicle pigmentation
same,proliferation and apoptosis of hair matrix keratinocytes (Ki67/Tunel immunohistomorphometry),[4],stimulates both proliferation and apoptosis
same,hair shaft elongation,[5],stimulates hair shaft elongating
same,protein expression of IL-6 induced by LPS,IL-6,"inhibit, in dose-dependent manner"
same,K15 expression,"K15; lower hair follicle, lower doses of compound A",significant upregulation
same,K15 expression,K15; treated skin,no measurable expression
same,dose dependence of inhibition of IL-6 mRNA expression induced by IFN-γ,IL-6 mRNA,does not appear to be dose-dependent
same,mRNA expression of IL-6 induced by IFN-γ,IL-6 mRNA,inhibit the expression of the inflammatory cytokine
same,"sebogenesis (intracellular lipids, Nile Red) induced by LA and LA+TST","sebocytes [6]; Example 9, LA (10^-4M), A 1 mM, FIG. 13",able to reduce the lipidogenic stimulus
same,"sebogenesis (intracellular lipids, Nile Red) induced by LA and LA+TST","sebocytes [6]; Example 11, LA (10^-4M), compound A 1 mM, FIG. 15",able to reduce the lipidogenic stimulus
same,influence of the times of treatment on reduction of the lipidogenic stimulus,"sebocytes [6]; Example 11, Nile Red assay, FIG. 15",No differences were observed
same,fatty acid assay of lipidogenic stimulus induced by LA and LA+TST,sebocytes [7]; FIG. 14A,reduced
same,squalene analysis of lipidogenic stimulus induced by LA and LA+TST,sebocytes [7]; FIG. 14B,confirmed
